Measured values reported in paper PMC8807614 (Scientific Reports, 2022).
Numbered stars: 1 amine (or outer) side, 2 acyl side, 3 side chain; on linkers, the order of the positions; unused ones are H or OH. Side chains are listed from the residue outwards. Ends that are not written are not given here. Peptide text beside a SMILES is read from it. * marks the point of attachment. γGlu = O=C(O)[C@H](CCC(=O)[*:2])N[*:1]; Stearoyl = CCCCCCCCCCCCCCCCCC(=O)*; AEEA = NCCOCCOCC(=O)O

How the values were obtained:
[1] = target: human NPFF2R (Homo sapiens, UniProt Q9Y5X5); experiment: NPFF2R functional activity assay (cAMP, HTRF); type: cell-based; settings: CHO-K1 cells stably expressing human NPFF2R, 1500 cells/well; HTRF cAMP (CisBio); 3 µM forskolin (~90% activity level); 30 min; DPBS, 0.5 mM IBMX, 0.05% casein; 11 concentrations
Sequence of human NPFF2R (Q9Y5X5 whole entry): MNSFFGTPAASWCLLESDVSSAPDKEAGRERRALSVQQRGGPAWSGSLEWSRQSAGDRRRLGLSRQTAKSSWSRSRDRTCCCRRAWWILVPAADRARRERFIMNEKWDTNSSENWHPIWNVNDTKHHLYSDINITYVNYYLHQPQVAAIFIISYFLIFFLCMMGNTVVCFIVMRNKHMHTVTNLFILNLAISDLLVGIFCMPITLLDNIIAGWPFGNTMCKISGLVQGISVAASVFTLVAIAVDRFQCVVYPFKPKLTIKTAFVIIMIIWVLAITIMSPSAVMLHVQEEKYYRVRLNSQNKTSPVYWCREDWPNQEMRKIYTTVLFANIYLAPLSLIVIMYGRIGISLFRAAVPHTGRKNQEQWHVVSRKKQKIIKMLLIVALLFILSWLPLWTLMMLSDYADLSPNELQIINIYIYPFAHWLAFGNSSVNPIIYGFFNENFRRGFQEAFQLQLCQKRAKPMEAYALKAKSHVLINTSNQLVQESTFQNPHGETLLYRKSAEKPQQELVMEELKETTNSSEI
Method: Figure 3 GPR10 and NPFF2R profiling of in vivo metabolites of GUB03385. […] (b) cAMP measurements in human NPFF2R CHO-K cells (HTRF technology, CisBio) at a fixed concentration of 3 µM forskolin after 30 min. incubation at room temperature with metabolites and the native peptide NPSF. Representative curves of three determinations.
The Homogenous Time Resolved Fluorescence (HTRF) technology optimized for Gq coupled receptors has thoroughly been described in the CisBio IP1 kit manual (#62IPAPEC) and in the cAMP assay kit manual for Gi coupled receptors (#62AM9PEC). Briefly, this technic is based on a competitive immunoassay using cryptate-labelled anti-cAMP or anti-IP1 antibodies and d2-labeled cAMP or IP1. In the absence of cellular cAMP or IP1, the anti-cryptate conjugate may get into proximity to the d2 conjugate and energy (FRET) can be transferred from cryptate to d2. Chem-1 cells stably expressing the human prolactin releasing peptide receptor (GPR10, Eurofins, # HTS057C) and irradiated CHO-K1 cells stably expressing the human NPFF2R (PerkinElmer, #ES-490-CF) were applied as cells in suspension, brought to life from frozen cell stocks immediately before assay performance. 384-Well (Corning, #4513) assay formats with a total assay volume of 20 µl were applied. GPR10 cells (10.000 cells/well) were incubated with agonist peptides and the NPFF2R cells (1500 cells/well) were incubated with agonist peptides and forskolin (~ 90% activity level) for 30 min at 37 °C using IP1 kit stimulation buffer and DPBS (Sigma, #D8537) containing 0.5 mM IBMX (Sigma, # I5879), receptively. Both stimulation buffers were supplemented with 0.05% casein (Sigma, # C4765-10 ml). After addition of HTRF® detection reagents and incubation with shaking (2400 rpm) for one hour at room temperature signals at 620 and 665 nm (raw counts: ratio of 665/620) were detected at a ClarioStar plate reader (BMG Labtech, Ortenberg, Germany). Concentration–response evaluation of compounds was performed with 11 concentrations of agonist peptides (covering 3 decades) and EC50 values were calculated by nonlinear regression using sigmoid concentration–response with variable slope. Data were analysed using GraphPad v9.1 software (GraphPad, La Jolla, CA).

[2] = In vivo plasma metabolite identification (MetID) of GUB03385; parameters: species or system DIO mice; settings: UPLC-Orbitrap MS; for %AUC 60 min: metabolite of GUB03385 in plasma of DIO mice 60 min after GUB03385 1250 nmol/kg SC; for %AUC 120 min: metabolite of GUB03385 in plasma of DIO mice 120 min after GUB03385 1250 nmol/kg SC; for %AUC 30 min: metabolite of GUB03385 in plasma of DIO mice 30 min after GUB03385 1250 nmol/kg SC
Method: Cardiac blood samples from DIO mice dosed with GUB03385 (1250 nmol/kg, SC, n = 10) were collected after 5, 10, 30, 60 and 120 min. Anaesthesia was performed using 2–4% isoflurane/O2 (Attane Vet., ScanVet Animal Health, Fredensborg, Denmark) inhalation. Blood samples were centrifuged (3000 g, 10 min) and plasma supernatants were stored at − 80 °C until MS analysis which was performed by Admescope Ltd (Oulu, Finland). Plasma precipitation was performed with twofold volume of cold acetonitrile containing 1% of formic acid. After centrifugation ([…], 10 min), supernatant was pipetted to 96-well plate and analysed using a Waters Acquity UPLC coupled to a Thermo Q-Exactive Focus Orbitrap MS. Peptides were separated on a Waters CSH C18 (2.1 × 50 mm, […]) column with a linear gradient from 2 to 40% acetonitrile over 3.5 min at a flowrate of 0.5 mL/min. Mass spectra were acquired in positive ionization mode in the mass range 133–2000 m/z with a resolution of 35,000; MS/MS data were acquired at a resolution of 17,500 in AIF mode with a normalized collision energy of 57. Data analysis and profiling of metabolites was performed by Admescope using Thermo XCalibur 4.1.31.9.

[3] = target: T1, human prolactin releasing peptide receptor (GPR10) (Homo sapiens, UniProt P49683); experiment: GPR10 functional activity assay (IP1, HTRF); type: cell-based; settings: Chem-1 cells stably expressing human GPR10, 10.000 cells/well; HTRF IP1 (CisBio); 30 min at 37 °C; IP1 stimulation buffer with 0.05% casein; 11 concentrations
T1 sequence (P49683 1-370): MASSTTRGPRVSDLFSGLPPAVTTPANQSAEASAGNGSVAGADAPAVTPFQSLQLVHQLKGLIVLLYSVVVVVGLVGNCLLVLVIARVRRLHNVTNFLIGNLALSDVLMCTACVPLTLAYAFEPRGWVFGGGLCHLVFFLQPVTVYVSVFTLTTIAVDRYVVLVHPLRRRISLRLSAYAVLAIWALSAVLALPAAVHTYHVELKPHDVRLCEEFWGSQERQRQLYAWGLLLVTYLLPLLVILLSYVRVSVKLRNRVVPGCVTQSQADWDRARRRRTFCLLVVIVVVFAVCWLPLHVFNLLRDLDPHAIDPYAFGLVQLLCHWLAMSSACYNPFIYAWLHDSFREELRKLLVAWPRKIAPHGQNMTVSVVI

Row | Compound | %AUC 60 min [2] | %AUC 120 min [2] | %AUC 30 min [2] | other results
1 | CC[C@H](C)[C@H](NC(=O)CNC(=O)[C@H](CCCNC(=N)N)NC(=O)[C@H](CO)NC(=O)[C@H](C)NC(=O)[C@H](Cc1ccc(O)cc1)NC(=O)[C@H](Cc1c[nH]c2ccccc12)NC(=O)[C@H](C)NC(=O)[C@@H]1CCCN1C(=O)[C@H](CC(N)=O)NC(=O)[C@@H](NC(=O)[C@H](CC(=O)O)NC(=O)[C@@H]1CCCN1C(=O)[C@@H](NC(=O)[C@H](CCCNC(=N)N)NC(=O)[C@@H](NC(=O)[C@H](CCC(=O)O)NC(=O)[C@H](CCSC)NC(=O)[C@H](CO)NC(=O)[C@H](Cc1c[nH]cn1)NC(=O)[C@H](CCCNC(=N)N)NC(=O)[C@H](Cc1c[nH]cn1)NC(=O)[C@@H](NC(=O)[C@H](CCCNC(=N)N)NC(=O)[C@@H](N)CO)[C@@H](C)O)[C@@H](C)CC)[C@@H](C)O)[C@@H](C)CC)C(=O)N[C@@H](CCCNC(=N)N)C(=O)N1CCC[C@H]1C(=O)N[C@H](C(=O)NCC(=O)N[C@@H](CCCNC(=N)N)C(=O)N[C@@H](Cc1ccccc1)C(N)=O)C(C)C [PrRP31] |  |  |  | EC50 [1]: > 5000 nM
2 | CCCCCCCCCCCCCCCCCC(=O)N[C@@H](CCC(=O)NCCOCCOCC(=O)NCCOCCOCC(=O)NCCCC[C@H](N)C(=O)N[C@@H](CCCNC(=N)N)C(=O)N1CCC[C@H]1C(=O)N[C@H](C(=O)O)C(C)C)C(=O)O [GUB08254] (H-K([AEEA-AEEA-γGlu-Stearoyl])RPV-OH; C-terminus assumed) | 5% | 11% |  | 
3 | CCCCCCCCCCCCCCCCCC(=O)N[C@@H](CCC(=O)NCCOCCOCC(=O)NCCOCCOCC(=O)NCCCC[C@H](NC(=O)CNC(=O)[C@H](CCCNC(=N)N)NC(=O)[C@@H](N)CO)C(=O)N[C@@H](CCCNC(=N)N)C(=O)N1CCC[C@H]1C(=O)N[C@H](C(=O)NCC(=O)N[C@@H](CCCNC(=N)N)C(=O)N[C@@H](Cc1ccccc1)C(N)=O)C(C)C)C(=O)O [GUB08248] (H-SRGK([AEEA-AEEA-γGlu-Stearoyl])RPVGRF-NH2) | 5% |  | 11% | 
4 | CC(C)C[C@H](NC(=O)[C@H](Cc1ccccc1)NC(=O)[C@H](C)NC(=O)[C@H](CCC(N)=O)NC(=O)[C@@H](N)CO)C(=O)N[C@@H](Cc1ccccc1)C(=O)N[C@@H](CCC(N)=O)C(=O)N1CCC[C@H]1C(=O)N[C@@H](CCC(N)=O)C(=O)N[C@@H](CCCNC(=N)N)C(=O)N[C@@H](Cc1ccccc1)C(N)=O [NPSF, neuropeptide SF] |  |  |  | EC50 [3]: > 5000 nM; EC50 [1]: 5.6 nM
5 | CCCCCCCCCCCCCCCCCC(=O)N[C@@H](CCC(=O)NCCOCCOCC(=O)NCCOCCOCC(=O)NCCCC[C@H](N)C(=O)N[C@@H](CCCNC(=N)N)C(=O)N1CCC[C@H]1C(=O)N[C@H](C(=O)NCC(=O)N[C@@H](CCCNC(=N)N)C(=O)O)C(C)C)C(=O)O [GUB08252] (H-K([AEEA-AEEA-γGlu-Stearoyl])RPVGR-OH; C-terminus assumed) | 11% | 10% |  | 
6 | CCCCCCCCCCCCCCCCCC(=O)N[C@@H](CCC(=O)NCCOCCOCC(=O)NCCOCCOCC(=O)NCCCC[C@H](NC(=O)CNC(=O)[C@H](CCCNC(=N)N)NC(=O)[C@@H](N)CO)C(=O)N[C@@H](CCCNC(=N)N)C(=O)N1CCC[C@H]1C(=O)N[C@H](C(=O)O)C(C)C)C(=O)O [GUB08250] (H-SRGK([AEEA-AEEA-γGlu-Stearoyl])RPV-OH; C-terminus assumed) | 23% | 14% | 48% | 
7 | CCCCCCCCCCCCCCCCCC(=O)N[C@@H](CCC(=O)NCCOCCOCC(=O)NCCOCCOCC(=O)NCCCC[C@H](NC(=O)CNC(=O)[C@H](CCCNC(=N)N)NC(=O)[C@@H](N)CO)C(=O)N[C@@H](CCCNC(=N)N)C(=O)N1CCC[C@H]1C(=O)N[C@H](C(=O)NCC(=O)O)C(C)C)C(=O)O [GUB08249] (H-SRGK([AEEA-AEEA-γGlu-Stearoyl])RPVG-OH; C-terminus assumed) | 9% | 7% | 18% | 
8 | CCCCCCCCCCCCCCCCCC(=O)N[C@@H](CCC(=O)NCCOCCOCC(=O)NCCOCCOCC(=O)NCCCC[C@H](NC(=O)CNC(=O)[C@H](CCCNC(=N)N)NC(=O)[C@H](CO)NC(=O)[C@H](C)NC(=O)[C@H](Cc1ccc(O)cc1)NC(=O)[C@H](Cc1c[nH]c2ccccc12)NC(=O)[C@H](C)NC(=O)[C@@H]1CCCN1C(=O)[C@H](CC(N)=O)NC(=O)[C@@H](NC(=O)[C@H](CC(=O)O)NC(=O)[C@@H]1CCCN1C(=O)[C@@H](NC(=O)[C@H](CCCNC(=N)N)NC(=O)[C@@H](NC(=O)[C@H](CCC(=O)O)NC(=O)[C@H](CCSC)NC(=O)[C@H](CO)NC(=O)[C@H](Cc1c[nH]cn1)NC(=O)[C@H](CCCNC(=N)N)NC(=O)[C@H](Cc1c[nH]cn1)NC(=O)[C@@H](NC(=O)[C@H](CCCNC(=N)N)NC(=O)[C@@H](N)CO)[C@@H](C)O)[C@@H](C)CC)[C@@H](C)O)[C@@H](C)CC)C(=O)N[C@@H](CCCNC(=N)N)C(=O)N1CCC[C@H]1C(=O)N[C@H](C(=O)NCC(=O)N[C@@H](CCCNC(=N)N)C(=O)N[C@@H](Cc1ccccc1)C(N)=O)C(C)C)C(=O)O [GUB03385] (H-SRTHRHSMEIRTPDINPAWYASRGK([AEEA-AEEA-γGlu-Stearoyl])RPVGRF-NH2) |  |  |  | time of degradation after subcutaneous administration ([2]; DIO mice, 1250 nmol/kg SC, plasma): < 30 min
9 | CCCCCCCCCCCCCCCCCC(=O)N[C@@H](CCC(=O)NCCOCCOCC(=O)NCCOCCOCC(=O)NCCCC[C@H](NC(=O)CNC(=O)[C@H](CCCNC(=N)N)NC(=O)[C@H](CO)NC(=O)[C@H](C)N)C(=O)N[C@@H](CCCNC(=N)N)C(=O)N1CCC[C@H]1C(=O)N[C@H](C(=O)NCC(=O)O)C(C)C)C(=O)O [GUB08247] (H-ASRGK([AEEA-AEEA-γGlu-Stearoyl])RPVG-OH; C-terminus assumed) | 7% | 1% | 34% | 
10 | TPDINPAWYASRGIRPVGRF-NH2 [PrRP20] |  |  |  | EC50 [3]: 0.2 nM; EC50 [1]: > 5000 nM
11 | CCCCCCCCCCCCCCCCCC(=O)N[C@@H](CCC(=O)NCCOCCOCC(=O)NCCOCCOCC(=O)NCCCC[C@H](NC(=O)CN)C(=O)N[C@@H](CCCNC(=N)N)C(=O)N1CCC[C@H]1C(=O)N[C@H](C(=O)NCC(=O)N[C@@H](CCCNC(=N)N)C(=O)N[C@@H](Cc1ccccc1)C(N)=O)C(C)C)C(=O)O [GUB08251] (H-GK([AEEA-AEEA-γGlu-Stearoyl])RPVGRF-NH2) | 7% | 8% |  | 
12 | CCCCCCCCCCCCCCCCCC(=O)N[C@@H](CCC(=O)NCCOCCOCC(=O)NCCOCCOCC(=O)NCCCC[C@H](N)C(=O)N[C@@H](CCCNC(=N)N)C(=O)N1CCC[C@H]1C(=O)N[C@H](C(=O)NCC(=O)O)C(C)C)C(=O)O [GUB08253] (H-K([AEEA-AEEA-γGlu-Stearoyl])RPVG-OH; C-terminus assumed) | 11% | 15% |  | 
